Measured values as given in BindingDB's records for doi:10.7270/Q29C6VXX (Burnham Center For Chemical Genomics, 2011).
pEC50: −log10 of the molar value.

These compounds were tested against T1, Apoptotic protease-activating factor 1 (Homo sapiens, UniProt O14727) (assay: activation of Apaf-1 mediated apoptosis – fluorescent, uHTS hits, dose response (AID 588554)).
T1 sequence (O14727 whole entry): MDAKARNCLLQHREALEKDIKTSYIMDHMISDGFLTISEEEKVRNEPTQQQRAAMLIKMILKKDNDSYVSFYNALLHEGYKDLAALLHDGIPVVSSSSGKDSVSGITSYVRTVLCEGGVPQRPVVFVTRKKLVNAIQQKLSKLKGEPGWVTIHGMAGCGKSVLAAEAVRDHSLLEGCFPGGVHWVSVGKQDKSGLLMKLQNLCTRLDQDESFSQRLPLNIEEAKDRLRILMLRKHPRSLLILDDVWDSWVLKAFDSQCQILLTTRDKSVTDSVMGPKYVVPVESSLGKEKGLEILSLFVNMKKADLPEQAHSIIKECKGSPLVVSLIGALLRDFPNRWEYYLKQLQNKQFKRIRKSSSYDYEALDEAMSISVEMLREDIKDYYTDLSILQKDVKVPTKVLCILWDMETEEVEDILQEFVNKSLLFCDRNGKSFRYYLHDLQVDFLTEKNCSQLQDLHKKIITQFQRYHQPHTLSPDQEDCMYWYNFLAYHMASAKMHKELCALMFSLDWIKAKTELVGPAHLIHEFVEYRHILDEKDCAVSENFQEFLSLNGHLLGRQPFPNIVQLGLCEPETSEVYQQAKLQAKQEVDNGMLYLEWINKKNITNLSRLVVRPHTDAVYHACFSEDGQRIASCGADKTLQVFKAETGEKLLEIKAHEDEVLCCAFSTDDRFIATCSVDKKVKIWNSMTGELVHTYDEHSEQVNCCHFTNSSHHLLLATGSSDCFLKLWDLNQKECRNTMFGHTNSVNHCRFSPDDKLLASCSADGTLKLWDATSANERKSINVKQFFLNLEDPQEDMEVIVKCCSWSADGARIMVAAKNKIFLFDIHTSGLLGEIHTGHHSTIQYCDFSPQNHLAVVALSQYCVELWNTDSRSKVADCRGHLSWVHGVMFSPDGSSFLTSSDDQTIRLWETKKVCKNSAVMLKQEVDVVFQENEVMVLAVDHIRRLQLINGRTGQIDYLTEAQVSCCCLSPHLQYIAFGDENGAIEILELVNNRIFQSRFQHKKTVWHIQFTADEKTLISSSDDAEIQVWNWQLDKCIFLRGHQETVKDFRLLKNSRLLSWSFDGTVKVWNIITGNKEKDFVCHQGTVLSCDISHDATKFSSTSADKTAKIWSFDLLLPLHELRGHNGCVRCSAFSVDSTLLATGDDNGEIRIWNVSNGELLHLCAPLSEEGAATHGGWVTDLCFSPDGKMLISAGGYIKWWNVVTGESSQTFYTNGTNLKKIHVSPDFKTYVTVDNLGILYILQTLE

Question: `CSc1ccc(CN=Nc2ccc(S(=O)(=O)Nc3ccccc3C(=O)O)cc2[N+](=O)[O-])cc1` [MLS002245633] was tested. Which pEC50 did it give?
Answer: Its pEC50 is 5.08.

Question: How did the pEC50 turn out when `O=C(NN=CC1C=C(Cl)C=C([N+](=O)[O-])C1=O)NC12CC3CC(CC(C3)C1)C2` (stereo not drawn) [1-(1-adamantyl)-3-[[(E)-(3-chloro-5-nitro-6-oxo-1-cyclohexa-2,4-dienylidene)methyl]amino]urea] was run?
Answer: Its pEC50 is 5.16.

Question: How did the pEC50 turn out when `CCOc1ccc(C(=O)CC=Nc2ccc(S(=O)(=O)NC(=N)N)cc2)cc1` [2-[4-[[(E)-3-(4-ethoxyphenyl)-3-oxidanylidene-prop-1-enyl]amino]phenyl]sulfonylguanidine] was run?
Answer: Its pEC50 is 5.20.
